According to patent publication US10919941B2, “Functional lipid constructs” (KODE BIOTECH LIMITED, priority 2007, dated 2021):
No end group written: not given here.

Key:
Type in all cases: cell-based, human
[1] = test system: Miltenberger antibody positive sera; test: BioVue AHG card column agglutination serology of modified red blood cells; parameters: key: 0 or ‘−’ no agglutination; 0 or ‘−’ no agglutination; 1+ or 3=very weak agglutination; 1+ or 3=very weak agglutination; 2+ or 5=weak agglutination; 2+ or 5=weak agglutination; 3+ or 8=moderate strong agglutination; 3+ or 8=moderate strong agglutination; 4+ or 10/12=strong agglutination; 4+ or 10/12=strong agglutination; 4+ or 10/12=strong agglutination
Method: (§1) Red blood cells are modified by mixing 1 part by volume of washed packed red blood cells with 1 part by volume of peptide-lipid construct dispersed at a concentration of 10 to 1000 pg/ml in cell media (Celpresol™).
(§2) The suspensions are either: • 1. incubated for 2 hours at 37° C. before being washed and suspended in a cell medium for serological analysis at a concentration of 0.8 to 3% (Method 1); or • 2. incubated for 3 to 4 hours at room temperature (circa 25° C.) followed by 18 hours at 4° C. before being washed and suspended in a cell medium for serological analysis at a concentration of 0.8 to 3% (Method 2).
(§3) Serological reactions are graded or scored by either of two established systems (0 or ‘−’ no agglutination, 1+ or 3=very weak agglutination, 2+ or 5=weak agglutination, 3+ or 8=moderate strong agglutination, 4+ or 10/12=strong agglutination)
(§4) Serological platforms used are Tube (addition of reagents and reactants into plastic or glass serology tubes and after appropriate incubations, washing and centrifugation observing reactions macroscopically by eye and a 10× magnification eyepiece and scoring) and BioVue™ (addition of reactants into cassettes containing beads (including some reactants) and after appropriate incubations and centrifugation observing the reaction patterns trapped within the Gel matrix). BioVue is the serological column agglutination platform of Ortho-Clinical Diagnostics. Diamed is the serological column agglutination platform of Diamed AG.

[2] = test system: sera reactive with modified RBCs; test: Neutralisation of reactive sera with free peptide, retested against modified RBCs (BioVue); parameters: key: 0 or ‘−’ no agglutination; 0 or ‘−’ no agglutination; 1+ or 3=very weak agglutination; 1+ or 3=very weak agglutination; 2+ or 5=weak agglutination; 2+ or 5=weak agglutination; 3+ or 8=moderate strong agglutination; 3+ or 8=moderate strong agglutination; 4+ or 10/12=strong agglutination; 4+ or 10/12=strong agglutination; 4+ or 10/12=strong agglutination; details: for Post-neutralisation serology, PAC74 / Post-neutralisation serology, TAP1: cells modified with M22
Excerpt: Optionally, where F is a peptide, the method includes the preliminary step of: • Adding an amount of the peptide to the sample of the serum; where the amount of the peptide is sufficient to neutralize non-specific agglutination or confirm specificity of the reactive antibody.

[3] = test system: Miltenberger Antibody Positive Panel; test: Reactivity of modified RBCs against the Miltenberger Antibody Positive Panel; parameters: key to score vs panel 15 TAP2 / score vs panel 4 T7202 / score vs panel 8 T5896 / score vs panel 2 T217 / score vs panel 3 T165 / score vs panel 14 TAP1 / score vs panel 10 Mia / score vs panel 11 Mur / score vs panel 12 Gam / score vs panel 6 T6025 / score vs panel 7 T8445 / score vs panel 9 MIII / score vs panel 13 BoxH / reactivity with Panel Serum #7 (T8445) / agglutination score, Panel Serum #7 (T8445): 0 or ‘−’ no agglutination; 0 or ‘−’ no agglutination; 1+ or 3=very weak agglutination; 1+ or 3=very weak agglutination; 2+ or 5=weak agglutination; 2+ or 5=weak agglutination; 3+ or 8=moderate strong agglutination; 3+ or 8=moderate strong agglutination; 4+ or 10/12=strong agglutination; 4+ or 10/12=strong agglutination; 4+ or 10/12=strong agglutination
Method: as §1, §2, §3, §4

[4] = test system: antibody negative serums; test: False positive reactions of modified RBCs with antibody negative serums/plasma; parameters: key to Reaction score BioVue AHG, PAC samples 1-46, 49, 50, 52, 53 / Reaction score BioVue AHG, PAC sample 47 / Reaction score BioVue AHG, PAC sample 48 / Reaction score BioVue AHG, PAC sample 51 / agglutination score, T series serum 2 / agglutination score, T series serum 42 / agglutination score, T series serum 63 / agglutination score, T series serum 62 / agglutination score, T series serum 7 / agglutination score, T series serum 20 / agglutination score, T series serum 48 / agglutination score, T series serum 22 / agglutination score, T series serum 39 / agglutination score, T series serum 23 / agglutination score, T series serum 30 / agglutination score, T series serum 4 / agglutination score, T series serum 31 / agglutination score, T series serum 44 / agglutination score, T series serum 61 / agglutination score, T series serum 18 / agglutination score, T series serum 21 / agglutination score, T series serum 28 / agglutination score, T series serum 55 / agglutination score, false positive serum T18 / agglutination score, false positive serum T21 / agglutination score, false positive serum T28 / agglutination score, false positive serum T55 / agglutination score, false positive serum T78 / agglutination score, false positive serum T92: 0 or ‘−’ no agglutination; 0 or ‘−’ no agglutination; 1+ or 3=very weak agglutination; 1+ or 3=very weak agglutination; 2+ or 5=weak agglutination; 2+ or 5=weak agglutination; 3+ or 8=moderate strong agglutination; 3+ or 8=moderate strong agglutination; 4+ or 10/12=strong agglutination; 4+ or 10/12=strong agglutination; 4+ or 10/12=strong agglutination; details: BioVue AHG cards
[5] = 40 μl plasma + 10 μl neutraliser 1.0 mg/ml, 30 minutes 37° C.
[6] = 40 μl plasma + 10 μl neutraliser 1.0 mg/ml, 30 minutes 37° C., head: cells modified with the peptide-lipid construct M22 (title: M28)
[7] = cells modified with the peptide-lipid construct M28, AHG test in BioVue
[8] = cells modified at 50 μg/ml, 2 hour 37° C.

M41: DOPE peptide-lipid construct: Hil peptide ETGETGQLVH, leader c, spacer CMG(2) (ETGETGQLVHC; also: DOPE peptide-lipid construct via leader Cys, spacer CMG(2))
BioVue score vs TAP1 ([1]; construct 50 μg/ml): 0 | BioVue score vs positive sample 2 T217 (T) ([1]; construct 50 μg/ml): 0 | BioVue score vs positive sample 3 T165 (Mur) ([1]; construct 50 μg/ml): 0 | BioVue score vs positive sample 4 T7202 (M) ([1]; construct 50 μg/ml): 0 | BioVue score vs positive sample 8 T5896 (M + K + Mur) ([1]; construct 50 μg/ml): 0

M28 peptide (TYPAHTANEC)
Post-neutralisation serology, PAC74 [2, 5]: 8 | Post-neutralisation serology, TAP1 [2, 5]: 8 | Post-neutralisation serology, TAP2 [2, 6]: 8

M28: DOPE peptide-lipid construct: Mur peptide TYPAHTANE, leader c, spacer CMG(2) (TYPAHTANEC; also: DOPE peptide-lipid construct via leader Cys, spacer CMG(2))
Pre-neutralisation serology, PAC70 [2, 7]: 8 | Pre-neutralisation serology, PAC71 [2, 7]: 5 | Pre-neutralisation serology, PAC72 [2, 7]: 5 | Pre-neutralisation serology, TAP2 [2, 7]: 8 | TAP 2 Serum BioVue AHG score ([1]; construct 100 μg/ml): 10 | score vs panel 2 T217 ([3]; Table 9, construct 50 μg/ml): 0 | score vs panel 4 T7202 ([3]; Table 9, construct 50 μg/ml): 10 | score vs panel 7 T8445 ([3]; Table 9, construct 50 μg/ml): 8 | score vs panel 8 T5896 ([3]; Table 9, construct 50 μg/ml): 0 | score vs panel 15 TAP2 ([3]; Table 9, construct 50 μg/ml): 8 | agglutination score, Panel Serum #7 (T8445) ([3]; cells modified at 50 μg/ml, 2 hour 37° C., BioVue AHG cards): 8 | reactivity with Panel Serum #7 (T8445) ([3]; construct 50 μg/ml (2 hours, 37° C.)): 8 | % positive ([4]; T series reactives (n = 58)): 9% | agglutination score, T series serum 2 [4, 8]: 10 | agglutination score, T series serum 4 [4, 8]: 8 | agglutination score, T series serum 7 [4, 8]: 0 | agglutination score, T series serum 18 [4, 8]: 0 | agglutination score, T series serum 20 [4, 8]: 0 | agglutination score, T series serum 21 [4, 8]: 0 | agglutination score, T series serum 22 [4, 8]: 0 | agglutination score, T series serum 23 [4, 8]: 0 | agglutination score, T series serum 28 [4, 8]: 0 | agglutination score, T series serum 30 [4, 8]: 0 | agglutination score, T series serum 31 [4, 8]: 8 | agglutination score, T series serum 39 [4, 8]: 0 | agglutination score, T series serum 42 [4, 8]: 0 | agglutination score, T series serum 44 [4, 8]: 10 | agglutination score, T series serum 48 [4, 8]: 0 | agglutination score, T series serum 55 [4, 8]: 0 | agglutination score, T series serum 61 [4, 8]: 10 | agglutination score, T series serum 62 [4, 8]: 0 | agglutination score, T series serum 63 [4, 8]: 0

VMYASSG?
Post-neutralisation serology, PAC74 [2, 5]: 8 | Post-neutralisation serology, TAP1 [2, 5]: 8 | Post-neutralisation serology, PAC70 [2, 6]: 8 | Post-neutralisation serology, PAC71 [2, 6]: 5 | Post-neutralisation serology, PAC72 [2, 6]: 5 | Post-neutralisation serology, TAP2 [2, 6]: 8
